Test results from patent publication US10221173B2, “Chemical compounds” (AstraZeneca AB, priority 2017, dated 2019).
In brackets after ≈: the same amount, converted by molar mass.

Key:
[1] = target: T1, Estrogen Receptor (ERα) in MCF-7 cells (Homo sapiens (Human), UniProt P03372); assay: MCF-7 ER down-regulation assay (immuno-fluorescence); type: cell-based
[2] = target: T1, Estrogen Receptor (ERα) in MCF-7 cells; assay: Western blotting assay, ER down-regulation in MCF-7; type: cell-based; settings: MCF-7, 100 nM compound, 48 h, vs 100 nM fulvestrant
[3] = target: estrogen receptor (ERα) in CAMA-1 cells (Homo sapiens (Human), UniProt P03372); assay: Western blotting assay, ER down-regulation in CAMA-1; type: cell-based; settings: CAMA-1, 100 nM compound, 48 h, vs 100 nM fulvestrant
Chain of estrogen receptor (ERα) in CAMA-1 cells (P03372 whole entry): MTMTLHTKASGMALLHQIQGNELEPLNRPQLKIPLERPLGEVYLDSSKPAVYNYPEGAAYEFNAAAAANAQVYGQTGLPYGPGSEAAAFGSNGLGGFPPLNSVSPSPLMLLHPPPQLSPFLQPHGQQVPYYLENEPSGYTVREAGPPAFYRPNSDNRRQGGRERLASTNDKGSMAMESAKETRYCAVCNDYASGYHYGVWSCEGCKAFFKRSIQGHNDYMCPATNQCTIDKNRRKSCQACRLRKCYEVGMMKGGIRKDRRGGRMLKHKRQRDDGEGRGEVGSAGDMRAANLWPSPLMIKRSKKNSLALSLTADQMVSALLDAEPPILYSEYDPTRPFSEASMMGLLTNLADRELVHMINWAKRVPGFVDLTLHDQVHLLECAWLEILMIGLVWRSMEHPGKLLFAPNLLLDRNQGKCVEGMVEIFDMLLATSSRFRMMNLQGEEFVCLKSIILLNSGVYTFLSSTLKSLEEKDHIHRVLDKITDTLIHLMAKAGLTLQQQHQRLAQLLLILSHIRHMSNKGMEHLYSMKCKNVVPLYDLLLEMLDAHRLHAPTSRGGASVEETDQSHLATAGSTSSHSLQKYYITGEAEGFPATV

[4] = Human plasma protein binding (equilibrium dialysis); type: in vitro ADME
[5] = Log D (shake flask, 1-octanol/aqueous buffer); type: physicochemical; settings: 1-octanol/aqueous buffer, pH 7.4, pH 7.4
hERG potassium channel = hERG potassium channel (Homo sapiens (Human), UniProt Q12809)
Chain of hERG potassium channel (Q12809 whole entry, the tested form may be a part): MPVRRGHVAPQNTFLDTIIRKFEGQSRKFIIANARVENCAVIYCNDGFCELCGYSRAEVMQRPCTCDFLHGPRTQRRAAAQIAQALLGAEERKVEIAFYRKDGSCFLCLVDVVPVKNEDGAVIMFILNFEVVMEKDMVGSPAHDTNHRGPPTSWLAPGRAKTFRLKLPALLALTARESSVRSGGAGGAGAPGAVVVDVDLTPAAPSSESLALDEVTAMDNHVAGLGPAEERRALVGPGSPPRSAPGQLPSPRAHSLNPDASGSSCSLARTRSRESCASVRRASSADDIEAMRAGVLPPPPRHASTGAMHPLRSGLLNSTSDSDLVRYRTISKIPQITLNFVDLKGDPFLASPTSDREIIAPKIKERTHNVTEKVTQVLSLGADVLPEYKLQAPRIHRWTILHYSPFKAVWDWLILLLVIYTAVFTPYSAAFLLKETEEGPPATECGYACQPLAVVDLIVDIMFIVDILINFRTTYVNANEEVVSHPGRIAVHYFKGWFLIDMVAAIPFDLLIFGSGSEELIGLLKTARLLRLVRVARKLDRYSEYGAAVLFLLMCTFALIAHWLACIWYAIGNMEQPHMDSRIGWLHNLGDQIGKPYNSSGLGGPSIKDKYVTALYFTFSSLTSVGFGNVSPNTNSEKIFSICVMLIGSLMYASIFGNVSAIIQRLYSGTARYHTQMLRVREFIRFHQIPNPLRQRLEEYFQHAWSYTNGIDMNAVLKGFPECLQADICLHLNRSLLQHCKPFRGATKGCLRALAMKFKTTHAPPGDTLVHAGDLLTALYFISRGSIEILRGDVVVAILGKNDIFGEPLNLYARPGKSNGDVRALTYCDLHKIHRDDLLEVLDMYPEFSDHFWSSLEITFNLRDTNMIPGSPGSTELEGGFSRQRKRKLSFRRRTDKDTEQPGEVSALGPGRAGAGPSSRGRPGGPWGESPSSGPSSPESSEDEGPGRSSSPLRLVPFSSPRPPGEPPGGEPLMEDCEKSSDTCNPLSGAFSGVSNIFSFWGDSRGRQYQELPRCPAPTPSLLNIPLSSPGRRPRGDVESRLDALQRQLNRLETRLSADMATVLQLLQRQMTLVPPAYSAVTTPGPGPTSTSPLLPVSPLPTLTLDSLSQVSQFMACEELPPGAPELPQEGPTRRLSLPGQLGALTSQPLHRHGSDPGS

[6] = target: recombinant human Estrogen Receptor alpha ligand binding domain (ER alpha-LBD (GST)) (Homo sapiens (Human), UniProt P03372); assay: ERα binding assay (LanthaScreen TR-FRET competition)
Chain of recombinant human Estrogen Receptor alpha ligand binding domain (ER alpha-LBD (GST)) (P03372 307-554): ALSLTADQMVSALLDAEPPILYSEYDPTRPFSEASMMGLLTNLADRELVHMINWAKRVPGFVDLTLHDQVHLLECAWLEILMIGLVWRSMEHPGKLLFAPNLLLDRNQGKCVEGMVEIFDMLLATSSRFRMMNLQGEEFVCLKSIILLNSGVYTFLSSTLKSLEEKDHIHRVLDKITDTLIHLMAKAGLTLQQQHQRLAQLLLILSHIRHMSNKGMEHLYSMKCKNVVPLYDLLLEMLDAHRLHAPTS

[7] = Thermodynamic solubility (shake-flask); type: physicochemical; settings: aqueous phosphate buffer, 25 °C, pH 7.4, aqueous buffer, thermodynamic from solid, phosphate buffer pH 7.4, 24 hours
Description: The thermodynamic solubility of a research compound is measured under standard conditions. It is a shake-flask approach that uses 10 mM DMSO solutions which are supplied from the Compound Managements liquid store and is a high throughput method. The dried compounds are equilibrated in an aqueous phosphate buffer (pH 7.4) for 24 hours at 25° C., the portion with the dissolved compound is then separated from the remains. The solutions are analyzed and quantified using UPLC/MS/MS, QC-samples are incorporated in each assay-run to ensure the quality of the assay.

T1 sequence (P03372 whole entry): as the sequence (P03372 whole entry) above

SMILES	IC50 [1] [nM]	MCF7 Western % ER deg vs Fv [2] [%]	CAMA1 Western % ER deg vs Fv [3] [%]	Human plasma protein binding (% free) [4] [% free]	logD [5]	IC50 (hERG potassium channel) [nM]	IC50 [6] [nM]	solubility at 24 h [7] [µM]
C[C@@H]1Cc2c([nH]c3ccccc23)[C@@H](c2cc(OCCNCCCF)ccn2)N1CC(F)(F)F [Example 35, 3-fluoro-N-(2-((2-((1S,3R)-3-methyl-2-(2,2,2-trifluoroethyl)-2,3,4,9-tetrahydro-1H-pyrido[3,4-b]indol-1-yl)pyridin-4-yl)oxy)ethyl)propan-1-amine]	1.1	94	92	5.4	3.1	5600	1.9	222 (≈ 103 µg/mL)
C[C@@H]1Cc2c([nH]c3ccccc23)[C@@H](c2cc(OCCNCCCF)ccc2Cl)N1CC(F)(F)CO [Example 44, 3-((1R,3R)-1-(2-chloro-5-(2-((3-fluoropropyl)amino)ethoxy)phenyl)-3-methyl-1,3,4,9-tetrahydro-2H-pyrido[3,4-b]indol-2-yl)-2,2-difluoropropan-1-ol]	0.14	95	94	2.3	3.3	2900	1	278 (≈ 142 µg/mL)
COc1ccc(OCCNCCCF)cc1[C@@H]1c2[nH]c3ccc(F)cc3c2C[C@@H](C)N1CC(F)(F)CO [Example 46, 2,2-difluoro-3-((1R,3R)-6-fluoro-1-(5-(2-((3-fluoropropyl)amino)ethoxy)-2-methoxyphenyl)-3-methyl-1,3,4,9-tetrahydro-2H-pyrido[3,4-b]indol-2-yl)propan-1-ol]	0.22	83	89	2.4	2.8	2700	1	462 (≈ 242 µg/mL)
C[C@@H]1Cc2c([nH]c3ccccc23)[C@@H](c2c(F)ccc(OCCNCCCF)c2F)N1CC(F)F [Example 51, N-(2-(3-((1R,3R)-2-(2,2-difluoroethyl)-3-methyl-2,3,4,9-tetrahydro-1H-pyrido[3,4-b]indol-1-yl)-2,4-difluorophenoxy)ethyl)-3-fluoropropan-1-amine]	0.12	92	93	2.3	3.2	4100	1.2	122 (≈ 58.7 µg/mL)
C[C@@H]1Cc2c([nH]c3c(F)cccc23)[C@@H](c2c(F)ccc(OCCNCCCF)c2F)N1CC(F)(F)CO [Example 60, 3-((1R,3R)-1-(2,6-difluoro-3-(2-((3-fluoropropyl)amino)ethoxy)phenyl)-8-fluoro-3-methyl-1,3,4,9-tetrahydro-2H-pyrido[3,4-b]indol-2-yl)-2,2-difluoropropan-1-ol]	0.12	92	97	1.9	3	4400	0.84	351 (≈ 186 µg/mL)
C[C@@H]1Cc2c([nH]c3ccccc23)[C@@H](c2nccc(OCCNCCCF)c2F)N1CC(F)(F)F [Example 92, 3-fluoro-N-(2-((3-fluoro-2-((1S,3R)-3-methyl-2-(2,2,2-trifluoroethyl)-2,3,4,9-tetrahydro-1H-pyrido[3,4-b]indol-1-yl)pyridin-4-yl)oxy)ethyl)propan-1-amine]	0.4	93	91		2.7	23000	1.6	468 (≈ 226 µg/mL)
Cc1c(OCCNCCCF)ncc(F)c1[C@@H]1c2[nH]c3ccccc3c2C[C@@H](C)N1CC(F)(F)CO [Example 110, 2,2-difluoro-3-((1R,3R)-1-(5-fluoro-2-(2-((3-fluoropropyl)amino)ethoxy)-3-methylpyridin-4-yl)-3-methyl-1,3,4,9-tetrahydro-2H-pyrido[3,4-b]indol-2-yl)propan-1-ol]	0.045	91	83		3.1	2800	0.43	939 (≈ 478 µg/mL)
C[C@@H]1Cc2c([nH]c3ccccc23)[C@@H](c2c(F)cnc(OCCNCCCF)c2Cl)N1CC(F)(F)CO [Example 111, 3-((1R,3R)-1-(3-chloro-5-fluoro-2-(2-((3-fluoropropyl)amino)ethoxy)pyridin-4-yl)-3-methyl-1,3,4,9-tetrahydro-2H-pyrido[3,4-b]indol-2-yl)-2,2-difluoropropan-1-ol]	0.07	84	92	1.4	3.1		0.6	469 (≈ 248 µg/mL)
